Measurements from patent US6156762A, “Indolomorphinan derivative and agent for curing and preventing cerebral disorder” (Toray Industries, Inc., priority 1997, dated 2000).

Assays:
[1] = test system: middle cerebral artery ischemia model of rat; assay: Infarction inhibiting action in middle cerebral artery ischemia (MCAo-recirculation) model of rat; assay type: in vivo; conditions: ip, 24 h, 3 mg/kg i.p. 10 minutes before occlusion and 1 hour after recirculation, infarction volume one day after, vs control group, read-out: Rate of inhibition of infarction
From the text: It is also known that, in this way, in the acute stage of cerebral infarction, the lesion proceeds to the peripheral tissue from the core of infarction, and death of the nerve cells is extended with the passage of several days. This possible not only extends and creates grave aftereffects, and causes loss of motor and mental function, but also finally critically influences on the life. As an in vivo experimental model of cerebral infarction which is capable of precisely evaluating the clinical effect of a medicine in conformity with clinical conditions of the disease of a patient of cerebral infarction, the middle cerebral artery occlusion (MCAo)-recirculation model comprising an embolus with a yarn using Wister rates may be used [Document: Japan Journal of Stroke, vol. 8, 1 (1986)]. […] This action was evaluated by applying the MCAo model by the method which will be described below.
In rats of 10 weeks old, after etherization, a median incision of the cervical region was made up to the right carotid artery bifurcation under 1.0% halothane anesthetization with care to preserve the vagus nerves. The common carotid artery and the external carotid artery were separated from the periphery connective tissue with the right carotid artery bifurcation as the center, and each of the arteries was ligated by a 6-0 silk yarn (Eto yarn). Further, a yarn was wound on the internal carotid artery origin in preparation for ligation and fixing after insertion of the embolus. Next, the common carotid artery was incised, and the embolus was inserted from the common carotid artery to the internal carotid artery by about 15 to 16 mm, and ligated and fixed to the internal carotid artery by the silk yarn at the end thereof near the nylon yarn. In this operation, the end of the embolus was inserted into the anterior cerebral artery by about 1 to 2 mm beyond the middle cerebral artery bifurcation, and the inlet of the middle cerebral artery was occluded by the body (resin part) of the embolus for 1 hours. In recirculation, the embolus with a yarn was removed to recirculate the blood flow to the middle cerebral artery. 3 mg/kg of each of test compounds was intraperitoneally administered 10 minutes before occlusion and 1 hour after recirculation of the blood flow. One day after occlusion and recirculation, the whole body was perfused with physiologic saline through the heart, and the brain was extracted. The extracted brain was cooled with ice and water for 5 minutes, and cut at intervals of 2.0 mm to form 7 sections of the cerebral coronal surface. Each of the sections was stained with TTC (Triphenyltetrazolium Chloride), and fixed by a 5% neutral buffer formalin solution. In each of the sections, the infarction area in the right cerebral hemisphere was measured by an image analyzer (Olympus), and the infarction was evaluated by volume (mm^3). The infarction volume was compared with the infarction volume of a control group to calculate the rate of inhibition of infarction.

cultured nerve cells = assay: Action of protecting cultured nerve cells from glutamic acid toxicity (LDH leakage); assay type: cell-based, Wistar rat; conditions: rat fetal cerebral cortex cells, 10 mM glutamic acid, 24 hours, read-out: ED50 (the source's name)
From the text: It is known that when the blood flow to the brain is temporarily clogged due to cerebral ischemia, hypoxia, or an trauma, delayed cerebral neuronal death is induced [Document: Brain Research, Vol. 239, 57 (1982)]. A possible cause of such damage of the cerebral nerve cells is excitatory toxicity due to an excitatory neutotransmitter such as glutamic acid or the like, which is excessively released with ischemia [Document: Trends in Neuroscience, vol. 10, 299 (1987)]. […] This is a problem to be solved by the invention. This action was evaluated by using the in vitro evaluation system which will be described below.
A fetus was taken from the abdomen of a Wistar female rat on the 18 to 19th day of pregnancy under aseptic conditions, and the head of the fetus was opened to extract the brain. The brain was placed in an ice-cooled L-15 medium, and the cerebral cortex was separated under a microscope. The cerebral cortexes of about 30 rats were cut into pieces, and then suspended in 10 ml of a 0.25% trypsin solution and 0.2 ml of a 0.01% DNase solution, followed by culture at 37° C. for 30 minutes. Then, 2 ml of serum was added to the solution, and immediately the resultant mixture was centrifuged at 120 rpm for 2 minutes to separate the precipitates. To the precipitates was added 7 ml of a DF medium (a medium obtained by adding 20 nM of transferrin, 5 μg/ml of insulin, 20 nM of progesterone,60 nM of selenite, 50 U/ml of penicillin, and 50 U/ml of streptomycin to a mixture equivalent amounts of Dulbecco modified Eagle medium and F-12 medium), followed by 20 pipetting operations using a 10-ml plastic pipette to obtain a cell suspension. The cell suspension was filtered with nylon mesh (pore diameter 43 μm) to fractionate isolated cells. The thus-obtained isolated cells were diluted with a DF medium to a concentration of 6.0×10^5 cells/ml, and 500 μl of the diluted cells was inoculated in each of the 48 wells of a 48-well culture plate precoated with polylysine, followed by culture at 37° C. for 1 day in the presence of 5% of CO2. On the 2nd day, the medium was changed to a new DF medium, and 10 μl of a solution of 0.5M glutamic acid in distilled water was added to each of the wells (the final glutamic acid concentration was 10 mM), followed by further culture at 37° C. for 24 hours in the presence 5% of CO2. A test compound was dissolved in distilled water, 10% or 100% DMSO or 10% methanol, and 5 μl of the solution was added to each of the wells immediately before glutamic acid was added. As an index of nerve cell damage, the enzyme activity of lactic acid dehydrogenase (LDH) leaking from the damaged cells into the medium was measured. For each of the test compounds, the LDH leakage was measured at each of concentrations to determine a dose-response curve by the modified Cochran-Armitige method. The 50% effective dose (ED50) of each of the test compounds we determined from the curve.

Row | SMILES | inhibition in vivo at 3 mg/kg [1] [%] | EC50 (cultured nerve cells) [nM]
1 | COc1ccc2c3c1O[C@H]1c4[nH]c5ccc(C(C)(C)C)cc5c4C[C@@]4(O)[C@@H](C2)N(CC2CC2)CC[C@]314 [Compound 16, 17-cyclopropylmethyl-3-methoxy-14β-hydroxy-6,7-dehydro-4,5α-epoxy-6,7,2',3'-(5'-t-butylindolo)morphinan] | 22 | 
2 | Cn1c2c(c3ccc4ccccc4c31)C[C@@]1(O)[C@H]3Cc4ccc(O)c5c4[C@@]1(CCN3CC1CC1)[C@H]2O5 [Compound 72, 17-cyclopropylmethyl-3,14β-dihydroxy-6,7-dehydro-4,5α-epoxy-6,7,2',3'-(1'-methyl-6',7'-benzoindolo)morphinan] | 85 | 26
3 | Oc1ccc2c3c1O[C@H]1c4[nH]c5c6c(ccc5c4C[C@@]4(O)[C@@H](C2)N(CC2CC2)CC[C@]314)-c1ccccc1C6 [Compound 20, 17-cyclopropylmethyl-3,14β-dihydroxy-6,7-dehydro-4,5α-epoxy-6,7,2',3'-(6',7',3",2"-indenoindolo)morphinan] | 10 | 27
4 | Oc1ccc2c3c1O[C@H]1c4c(c5cc6c7c(cccc7c5n4Cc4ccccc4)-c4ccccc4-6)C[C@@]4(O)[C@@H](C2)N(CC2CC2)CC[C@]314 [Compound 79, 17-cyclopropylmethyl-3,14β-dihydroxy-6,7-dehydro-4,5α-epoxy-6,7,2',3'-(1'-benzyl-5',6"-benzeno-6',7'-benzoindolo)morphinan] | 26 | 190
5 | COc1ccc2c3c1O[C@H]1c4[nH]c5c(ccc6ccccc65)c4C[C@@]4(O)[C@@H](C2)N(CC2CC2)CC[C@]314 [Compound 17, 17-cyclopropylmethyl-3-methoxy-14β-hydroxy-6,7-dehydro-4,5α-epoxy-6,7,2',3'-(6',7'-benzoindolo)morphinan] | 56 | 120
6 | Oc1ccc2c3c1O[C@H]1c4[nH]c5ccc6ccccc6c5c4C[C@@]4(O)[C@@H](C2)N(CC2CC2)CC[C@]314 [Compound 8, 17-cyclopropylmethyl-3,14β-dihydroxy-6,7-dehydro-4,5α-epoxy-6,7,2',3'-(4',5'-benzoindolo)morphinan] | 49 | 200
7 | Oc1ccc2c3c1O[C@H]1c4[nH]c5c(ccc6ccccc65)c4C[C@@]4(O)[C@@H](C2)N(CCc2ccccc2)CC[C@]314 [Compound 75, 17-(2-phenylethyl)-3,14β-dihydroxy-6,7-dehydro-4,5α-epoxy-6,7,2',3'-(6',7'-benzoindolo)morphinan] | 30 | 
8 | CS(=O)(=O)n1c2c(c3ccc4ccccc4c31)C[C@@]1(O)[C@H]3Cc4ccc(O)c5c4[C@@]1(CCN3CC1CC1)[C@H]2O5 [Compound 78, 17-cyclopropylmethyl-3,14β-dihydroxy-6,7-dehydro-4,5α-epoxy-6,7,2',3'-(1'-methylsulfonyl 6',7'-benzoindolo)morphinan] | 55 | 
9 | Oc1ccc2c3c1O[C@H]1c4[nH]c5c(ccc6ccccc65)c4C[C@@]4(O)[C@@H](C2)NCC[C@]314 [Compound 73, 3, 14β-dihydroxy-6,7-dehydro-4,5α-epoxy-6,7,2',3'-(6',7'-benzoindolo)morphinan] | 34 | 
10 | Oc1ccc2c3c1O[C@H]1c4[nH]c5ccccc5c4C[C@@]4(O)[C@@H](C2)N(CC2CC2)CC[C@]314 [Compound 1, 17-cyclopropylmethyl-3,14β-dihydroxy-6,7-dehydro-4,5α-epoxy-6,7,2',3'-indolomorphinan] | 23 | 
11 | Oc1ccc2c3c1O[C@H]1c4[nH]c5c6ccccc6c6ccccc6c5c4C[C@@]4(O)[C@@H](C2)N(CC2CC2)CC[C@]314 [Compound 23, 17-cyclopropylmethyl-3,14β-dihydroxy-6,7-dehydro-4,5α-epoxy-6,7,2',3'-(4',5',6',7'-debenzoindolo)morphinan] | 79 | 
12 | O=C(CCCCCc1ccccc1)NCCCn1c2c(c3ccccc31)C[C@@]1(O)[C@H]3Cc4ccc(O)c5c4[C@@]1(CCN3CC1CC1)[C@H]2O5 [Compound 62, 17-cyclopropylmethyl-3,14β-dihydroxy-6,7-dehydro-4,5α-epoxy-6,7,2',3'-[1'-[3-(6-phenylhexanoamido)propyl]indolo]morphinan] | 10 | 
13 | O=C(/C=C/c1cccc(C(F)(F)F)c1)NCCCn1c2c(c3ccccc31)C[C@@]1(O)[C@H]3Cc4ccc(O)c5c4[C@@]1(CCN3CC1CC1)[C@H]2O5 [Compound 63, 17-cyclopropylmethyl-3,14β-dihydroxy-6,7-dehydro-4,5α-epoxy-6,7,2',3'-[1'-[3-(3-trifluoromethylcinnamido)propyl]indolo]morphinan] |  | 150
14 | CN1CC[C@]23c4c5ccc(O)c4O[C@H]2c2[nH]c4c(ccc6ccccc64)c2C[C@@]3(O)[C@H]1C5 [Compound 74, 17-methyl-3,14β-dihydroxy-6,7-dehydro-4,5α-epoxy-6,7,2',3'-(6',7'-benzoindolo)morphinan] | 27 | 
15 | NCCCn1c2c(c3ccccc31)C[C@@]1(O)[C@H]3Cc4ccc(O)c5c4[C@@]1(CCN3CC1CC1)[C@H]2O5 [Compound 24, 17-cyclopropylmethyl-3,14β-dihydroxy-6,7-dehydro-4,5α-epoxy-6,7,2',3'-[1'-(3-aminopropyl)indolo]morphinan] |  | 800
16 | N#Cc1cc2c3c([nH]c2c2ccccc12)[C@@H]1Oc2c(O)ccc4c2[C@@]12CCN(CC1CC1)[C@H](C4)[C@]2(O)C3 [Compound 11, 17-cyclopropylmethyl-3,14β-dihydroxy-6,7-dehydro-4,5α-epoxy-6,7,2',3'-(5'-cyano-6',7'-benzoindolo)morphian] |  | 138
17 | Oc1ccc2c3c1O[C@H]1c4[nH]c5c(cc(Cl)c6ccccc65)c4C[C@@]4(O)[C@@H](C2)N(CC2CC2)CC[C@]314 [Compound 10, 17-cyclopropylmethyl-3,14β-dihydroxy-6,7-dehydro-4,5α-epoxy-6,7,2',3'-(5'-chloro-6',7'-benzoindolo)morphinan] | 15 | 
18 | Oc1ccc2c3c1O[C@H]1c4[nH]c5c(ccc6ccccc65)c4C[C@@]4(O)[C@@H](C2)N(CC2CCC2)CC[C@]314 [Compound 76, 17-cyclobutylmethyl-3,14β-dihydroxy-6,7-dehydro-4,5α-epoxy-6,7,2',3'-(6',7'-benzoindolo)morphinan] | 65 | 
